Test results as given in publication PMC8303947, “Evaluation of Ruthenium(II) N-Heterocyclic Carbene Complexes as Antibacterial Agents and Inhibitors of Bacterial Thioredoxin Reductase” (Molecules, 2021).
Converted amounts (≈) assume the structure as drawn. Where two headings read alike, the source gives them in different places.

Columns and labels:
S. aureus DSM 20231 = experiment: Antimicrobial microtiter plate MIC assay, S. aureus DSM 20231; assay type: cell-based, Staphylococcus aureus; details: Mueller Hinton broth, 16–18 h at 37 °C
Method: (§1) The fungus Candida albicans was used as a non-bacterial reference organism. The broad-spectrum antibiotic Ciprofloxacin was used as a reference drug.
(§2) Compounds were tested in a microtiter plate assay according to CLSI guidelines against E. coli DSM 30083, A. baumannii DSM 30007, P. aeruginosa DSM 50071, B. subtilis DSM 402, S. aureus DSM 20231, S. aureus ATCC 43300 (MRSA), and C. albicans, as described previously. E. coli, A. baumannii, S. aureus, and B. subtilis were grown in Mueller Hinton broth, P. aeruginosa in cation-adjusted Mueller Hinton II, and C. albicans DSM1386 in Sabouraud broth. Compounds were dissolved in DMSO at 10 mg/mL. Starting from a 10 mg/mL stock solution, serial dilutions in culture media were prepared with the Tecan Freedom Evo 75 liquid handling workstation (Tecan, Männedorf, Switzerland), covering a range from 512 to 0.5 µg/mL. Assay volumes were 200 µL per well. After inoculating with 5 × 10^5 bacteria/mL from late exponential cultures grown in the same media, cultures were incubated for 16–18 h at 37 °C. The lowest compound concentration inhibiting visible bacterial growth was recorded as MIC.

A. baumannii DSM 30007 = experiment: Antimicrobial microtiter plate MIC assay, A. baumannii; assay type: cell-based, Acinetobacter baumannii; details: Mueller Hinton broth, 16–18 h at 37 °C
Method: as §1, §2

E. coli DSM 30083 = experiment: Antimicrobial microtiter plate MIC assay, E. coli; assay type: cell-based, Escherichia coli; details: Mueller Hinton broth, 16–18 h at 37 °C
Method: as §1, §2

C. albicans DSM 1386 = experiment: Antimicrobial microtiter plate MIC assay, C. albicans; assay type: cell-based, Candida albicans; details: Sabouraud broth
Method: as §1
E. coli, A. baumannii, S. aureus, and B. subtilis were grown in Mueller Hinton broth, P. aeruginosa in cation-adjusted Mueller Hinton II, and C. albicans DSM1386 in Sabouraud broth. Compounds were dissolved in DMSO at 10 mg/mL. […] Assay volumes were 200 µL per well. After inoculating with 5 × 10^5 bacteria/mL from late exponential cultures grown in the same media, cultures were incubated for 16–18 h at 37 °C. The lowest compound concentration inhibiting visible bacterial growth was recorded as MIC.

P. aeruginosa DSM 50071 = experiment: Antimicrobial microtiter plate MIC assay, P. aeruginosa; assay type: cell-based, Pseudomonas aeruginosa; details: cation-adjusted Mueller Hinton II, 16–18 h at 37 °C
Method: as §1, §2

B. subtilis 168 = experiment: Antimicrobial microtiter plate MIC assay, B. subtilis; assay type: cell-based, Bacillus subtilis; details: Gram-positive, B. subtilis 168 (DSM 402), Mueller Hinton broth, 16–18 h at 37 °C
Method: as §1, §2

[1] = tested on: S. aureus ATCC 43300 (MRSA); experiment: Antimicrobial microtiter plate MIC assay, S. aureus ATCC 43300 (MRSA); assay type: cell-based, Staphylococcus aureus; details: Gram-positive, Mueller Hinton broth, 16–18 h at 37 °C
Method: as §1, §2

E. coli TrxR = target: T1, E. coli TrxR (Escherichia coli, UniProt P0A9P4); experiment: Inhibition of bacterial TrxR (E. coli), 5,5-dithiobis-(2-nitrobenzoic acid) reduction assay; assay type: biochemical
T1 construct: purchased Merck (Darmstadt, Germany)
Method: The inhibition of TrxR has been considered as a novel mode of action for antibiotics and in our previous report, the relevance for gold NHC complexes had been shown.
The TrxR (E. coli) inhibition assay was performed according to a previously published procedure. It is partly based on the procedure developed by Lu et al. and detects the formation of 5-TNB (5-thionitrobenzoic acid). Solutions of E. coli TrxR (35.4 U/mL) and of its substrate thioredoxin (Trx) E. coli (156 µg/mL) (both purchased from Merck (Darmstadt, Germany) and diluted with distilled water) and fresh stock solutions of the test compounds (in DMF) were prepared. TE buffer (Tris-HCl 50 mM, EDTA 1 mM, pH 7.5) containing graded concentrations of the respective compounds (20 µL) or buffer without compounds (20 µL, as control) were mixed with TrxR solution (10 µL), Trx solution (10 µL), and a solution of NADPH (200 µM) in TE buffer (100 µL) in a well on a 96-well plate. As blank solution, 200 µM NADPH in TE buffer (100 µL) mixed with a DMF/buffer mixture (40 µL) was used (final concentrations of DMF: 0.5% v/v). The solutions on the 96-well plates were incubated for 75 min at 25 °C with moderate shaking. […] The highest test compound concentration was used and the enzyme solution was replaced by TE buffer for this purpose.

[2] = Staphylococcus aureus, DSM20231, Gram-positive
[3] = Acinetobacter baumannii, DSM30007, Gram-negative
[4] = purified E. coli TrxR, DTNB reduction, 75 min preincubation at 25 °C, mean (±SD) of three experiments, read-out: IC50 inhibition of E. coli TrxR
[5] = Escherichia coli, DSM30083, Gram-negative
[6] = Candida albicans, DSM1386, fungus
[7] = Pseudomonas aeruginosa, DSM50071, Gram-negative

T1 sequence (P0A9P4 whole entry): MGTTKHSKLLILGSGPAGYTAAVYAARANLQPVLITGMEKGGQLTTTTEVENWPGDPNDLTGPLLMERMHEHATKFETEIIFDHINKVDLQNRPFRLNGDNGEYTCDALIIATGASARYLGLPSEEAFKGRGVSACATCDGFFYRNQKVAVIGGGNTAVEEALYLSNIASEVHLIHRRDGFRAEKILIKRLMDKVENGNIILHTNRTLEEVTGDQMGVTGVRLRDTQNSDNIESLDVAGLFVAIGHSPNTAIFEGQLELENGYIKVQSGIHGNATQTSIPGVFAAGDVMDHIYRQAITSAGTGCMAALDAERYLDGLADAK

Molecule | MIC (S. aureus DSM 20231; Gram-positive) [µM] | MIC (A. baumannii DSM 30007; Gram-negative) [µM] | MIC (E. coli DSM 30083; Gram-negative) [µM] | MIC (C. albicans DSM 1386; fungus) [µM] | MIC (P. aeruginosa DSM 50071; Gram-negative) [µM] | MIC (B. subtilis 168) [µM] | MIC [1] [µM] | MIC (S. aureus DSM 20231; [2]) [µM] | MIC (A. baumannii DSM 30007; [3]) [µM] | IC50 (E. coli TrxR; [4]) [µM] | MIC (E. coli DSM 30083; [5]) [µM] | MIC (C. albicans DSM 1386; [6]) [µM] | MIC (P. aeruginosa DSM 50071; [7]) [µM] | MIC (B. subtilis 168; Bacillus subtilis, DSM402) [µM] | MIC ([1]; Staphylococcus aureus) [µM] | IC50 (E. coli TrxR) [µM]
1,3-Dibenzyl-5-chloro-1H-benzimidazolium bromide [2e] | 77.7 | 1242.6 | 1242.6 | 1242.6 | 1242.6 | 155.3 | 77.7 | – | – | – | – | – | – | – | – | –
1,3-Dibenzyl-5-fluoro-1H-benzimidazolium bromide [2d] | 161.1 | >1288.7 | 1288.7 | >1288.7 | >1288.7 | 322.2 | 161.1 | – | – | – | – | – | – | – | – | –
1,3-Dibenzyl-5-methoxy-1H-benzimidazolium bromide [2c] | 19.5 | 1250.8 | 1250.8 | 1250.8 | 1250.8 | 78.2 | 19.5 | – | – | – | – | – | – | – | – | –
c1ccc(Cn2c[n+](Cc3ccccc3)c3ccccc32)cc1 [2a] | – | – | – | – | – | – | – | 42.2 | 1350 | > 100 | 1350 | 1350 | 1350 | 169 | 42.2 | –
Cc1ccc2c(c1)n(Cc1ccccc1)c[n+]2Cc1ccccc1 [2b, 1,3-Dibenzyl-5-methyl-1H-benzimidazolium bromide] | – | – | – | – | – | – | – | 81.4 | 1300 | – | 1300 | 1300 | 1300 | 651 | 163 | > 100
Brc1ccc2c(c1)n(Cc1ccccc1)c[n+]2Cc1ccccc1 [2f, 1,3-Dibenzyl-5-bromo-1H-benzimidazolium bromide] | – | – | – | – | – | – | – | 140 | > 1120 | – | > 1120 | > 1120 | > 1120 | 279 | 69.8 | > 100
Cc1ccc(C(C)C)cc1.Cc1ccc2c(c1)n(Cc1ccccc1)[c](=[Ru]([Cl])[Cl])n2Cc1ccccc1 [3b, (1,3-Dibenzyl-5-methyl-1H-benzimidazol-2-ylidene)-dichlorido-(η^6-p-cymene)ruthenium(II)] | 25.9 | 413.8 | 827.7 | >827.7 | 413.8 | 25.9 | 25.9 | – | – | 14 | – | – | – | – | – | –
COc1ccc2c(c1)n(Cc1ccccc1)[c](=[Ru]([Cl])[Cl])n2Cc1ccccc1.Cc1ccc(C(C)C)cc1 [3c, (1,3-Dibenzyl-5-methoxy-1H-benzimidazol-2-ylidene)-dichlorido-(η^6-p-cymene)ruthenium(II)] | 25.2 | >806.8 | >806.8 | >806.8 | >806.8 | 25.2 | 25.2 | – | – | – | – | – | – | – | – | –
Cc1ccc(C(C)C)cc1.Fc1ccc2c(c1)n(Cc1ccccc1)[c](=[Ru]([Cl])[Cl])n2Cc1ccccc1 [3d, (1,3-Dibenzyl-5-fluoro-1H-benzimidazol-2-ylidene)-dichlorido-(η^6-p-cymene)ruthenium(II)] | 25.7 | 205.6 | 822.4 | >822.4 | >822.4 | 25.7 | 25.7 | – | – | – | – | – | – | – | – | –
Cc1ccc(C(C)C)cc1.Clc1ccc2c(c1)n(Cc1ccccc1)[c](=[Ru]([Cl])[Cl])n2Cc1ccccc1 [3e, (1,3-Dibenzyl-5-chloro-1H-benzimidazol-2-ylidene)-dichlorido-(η^6-p-cymene)ruthenium(II)] | 25.1 | >802.4 | 401.2 | >802.4 | >802.4 | 25.1 | 12.5 | – | – | – | – | – | – | – | – | –
Cc1ccc(C(C)C)cc1.[Cl][Ru]([Cl])=[c]1n(Cc2ccccc2)c2ccc(Br)cc2n1Cc1ccccc1 [3f, (1,3-Dibenzyl-5-bromo-1H-benzimidazol-2-ylidene)-dichlorido-(η^6-p-cymene)ruthenium(II)] | 23.4 | >749.1 | 374.6 | >749.1 | >749.1 | 11.7 | 11.7 | – | – | > 100 | – | – | – | – | – | –
O=C(O)c1cn(C2CC2)c2cc(N3CCNCC3)c(F)cc2c1=O [Ciprofloxacin, reference compound] | – | – | – | – | – | – | – | 12 (≈ 3.98 µg/mL) | 24 (≈ 7.95 µg/mL) | – | 1.5 (≈ 0.497 µg/mL) | – | 1.2 (≈ 0.398 µg/mL) | 24 (≈ 7.95 µg/mL) | 12 (≈ 3.98 µg/mL) | –
